Experiment [1] deals with DR5. In words: Doxycycline-inducible DR5 (wild type and Cys mutants) expression, non-reducing immunoblot. The following applies: MDA-MB-468 stable cell lines, 24 h, FIG. 7E. It is filed as cell-based. The method, then: (§1) To assess protein disulfide bond-mediated oligomerization, cells were treated with DDAs for 24 h in 10% FBS-DMEM. Cells were subsequently scraped directly into the media and pelleted by centrifugation. Cells were extracted directly into boiling 2×-SDS-Sample Buffer containing 100 mM NEM and boiled for 10 min. Samples were sonicated, followed by centrifugation for 20 min at room temperature. Samples were subsequently analyzed by SDS-PAGE and immunoblot.
(In western blotting, separated proteins are transferred to a membrane and probed.)

Experiment [2] deals with PDIA1 (Homo sapiens, UniProt P07237). In words: In vitro binding assay with recombinant purified PDIA1. The following applies: pre-incubation with a molar excess, FIG. 3D. The method, then: (§2) Purified His6-AGR2 or His6-AGR2 C81S, as prepared above, or His6-AGR2 (PRO-580) or His6-AGR3 (PRO-242) obtained from ProSpec (New Brunswick NJ) were incubated with or without varying concentrations of the unlabeled DDA competitors, tcyDTDO or dMtcyDTDO, and 30 μM Biotin-GlyPyrDTDO or Biotin-PyrDTDO in buffer (20 mM HEPES (pH 7.4), 1 mM EDTA, 1 mM EGTA, 5% Glycerol, 1 nM Microcystin, 1 mM Na3VO4, and 40 mM Na2H2P2O7) containing 1% Triton-X 100 for 30 min at 37° C. […] Therefore, the two probes were used interchangeably. Reactions were stopped by boiling the samples in 2×-SDS-Sample Buffer containing 100 mM NEM for 10 min. Biotin-DDA labeling of protein was verified by blotting with Streptavidin-Alkaline Phosphatase (Rockland Immunochemicals, Inc., Limerick, PA). ERp44 (PRO-547) and PDIA1 (ENZ-262) were obtained from ProSpec and used in experiments examining the binding of these proteins to Biotin-PyrDTDO.
Chain of PDIA1 (P07237 18-508): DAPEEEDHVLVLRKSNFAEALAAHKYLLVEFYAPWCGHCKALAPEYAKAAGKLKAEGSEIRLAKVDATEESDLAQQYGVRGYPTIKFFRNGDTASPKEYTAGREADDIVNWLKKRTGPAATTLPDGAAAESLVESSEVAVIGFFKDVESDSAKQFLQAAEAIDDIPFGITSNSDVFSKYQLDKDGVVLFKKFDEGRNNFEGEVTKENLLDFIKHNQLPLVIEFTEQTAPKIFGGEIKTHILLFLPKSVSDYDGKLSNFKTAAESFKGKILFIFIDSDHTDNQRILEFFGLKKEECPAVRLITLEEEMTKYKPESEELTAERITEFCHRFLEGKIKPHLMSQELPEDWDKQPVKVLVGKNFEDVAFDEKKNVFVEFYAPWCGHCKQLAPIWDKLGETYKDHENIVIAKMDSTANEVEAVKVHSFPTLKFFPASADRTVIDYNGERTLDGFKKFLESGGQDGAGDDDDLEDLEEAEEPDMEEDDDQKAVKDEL

For experiment [3], the target named is T1, ERp44/DR5 complexes (Homo sapiens, UniProt Q9BS26).
T1 construct: endogenous in cells; host or cells: MDA-MB-468
In words: ERp44 co-immunoprecipitation. In kind it is cell-based. The settings on record: MDA-MB-468 cells inducibly expressing Δ81-178 DR5, 24 h, FIG. 7D.
T1 sequence (Q9BS26 30-406, one chain of several): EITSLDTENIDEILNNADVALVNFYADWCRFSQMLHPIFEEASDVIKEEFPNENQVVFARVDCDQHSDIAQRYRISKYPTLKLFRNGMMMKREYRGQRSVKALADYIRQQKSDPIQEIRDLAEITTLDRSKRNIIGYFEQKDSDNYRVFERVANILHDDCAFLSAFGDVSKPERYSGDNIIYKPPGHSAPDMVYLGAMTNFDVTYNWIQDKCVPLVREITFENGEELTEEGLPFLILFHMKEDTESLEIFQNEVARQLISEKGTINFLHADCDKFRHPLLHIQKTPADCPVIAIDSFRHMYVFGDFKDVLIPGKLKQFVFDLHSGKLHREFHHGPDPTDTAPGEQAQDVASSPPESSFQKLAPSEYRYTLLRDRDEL

Experiment [4] deals with T2, ERp44/DR5 complexes (Homo sapiens, UniProt Q9BS26).
T2 construct: endogenous in cells; host or cells: MDA-MB-468
In words: ERp44 co-immunoprecipitation. The following applies: MDA-MB-468 cells inducibly expressing wild type DR5, 24 h, FIG. 7D. It is filed as cell-based.
T2 sequence (Q9BS26 30-406): as the sequence (Q9BS26 30-406, one chain of several) above
T2 sequence (O14763 56-440 partner): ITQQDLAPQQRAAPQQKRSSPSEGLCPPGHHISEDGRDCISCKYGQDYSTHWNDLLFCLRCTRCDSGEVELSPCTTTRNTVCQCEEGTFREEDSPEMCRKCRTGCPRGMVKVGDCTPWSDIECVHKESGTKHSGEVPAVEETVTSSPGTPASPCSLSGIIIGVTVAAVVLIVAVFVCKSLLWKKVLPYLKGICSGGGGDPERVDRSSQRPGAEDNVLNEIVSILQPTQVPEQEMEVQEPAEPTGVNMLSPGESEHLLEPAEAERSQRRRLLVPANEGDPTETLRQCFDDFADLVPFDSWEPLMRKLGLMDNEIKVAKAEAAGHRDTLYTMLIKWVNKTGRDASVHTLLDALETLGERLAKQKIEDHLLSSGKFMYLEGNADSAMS

Experiment [5] relates to ERAP1. In words: ERAP1 retention/secretion in MDA-MB-468 cells, immunoblot. In kind it is cell-based. The following applies: MDA-MB-468 cells.
Excerpt: The BT20, BT474, BT549, MCF7, MDA-MB-231, MDA-MB-436, MDA-MB-468, HCC1143, HCC1500, HCC1569, HCC1937, HCC1954, Hs578t, and T47D cells lines were purchased from American Type Culture Collection (ATCC) (Manassas, VA). The HCI-001 cell line was derived from an ER-/PR-/HER2- patient-derived xenograft originally isolated from a patient as described previously (DeRose Y S, et al. Nat Med 2011; 17: 1514-1520). The HCI-001/LVM2 model was derived from the HCI-001 cell line by performing two rounds of selection for liver metastasis, as described previously (Wang M, et al. Cell Death Discovery 2019; 5: 153). Cell lines were grown in Dulbecco's Modified Eagle's Medium (GE Healthcare Life Sciences, Logan, UT) containing 10% fetal bovine serum (10% FBS—DMEM) in a humidified incubator with 5% CO2 at 37° C. Cell lysates were prepared as described previously (Law B K, et al. Mol Cell Biol. 2002; 22: 8184-8198). Immunoblot analysis was performed utilizing the following antibodies purchased from Cell Signaling Technology (Beverly, MA) [Akt, #4691; P-Akt[T308], #13038; ATF4, #11815; CHOP, #2895; Cleaved Caspase 8, #9496; DR4, #42533; DR5, #8074; EGFR, #4267; GRP78, #3177; HER3, #4754; PARP, #9532; PDIA1, #3501; XBP1s, #12782], from Santa Cruz Biotechnology (Santa Cruz, CA) [Actin, sc-47778; AGR2/3, sc-376653; AGR3, sc-390940; ERO1-a, sc-100805; and ERp44, sc-393687], or from Rockland Immunochemicals, Inc. (Limerick, PA), Streptavidin-Alkaline Phosphatase conjugated (SA-AP), S000-05.
as §1

The test system of experiment [6] is HER3, DR5, CHOP and XBP1s. In words: Reducing immunoblot of DDA responses. It is filed as cell-based. The following applies: MDA-MB-468 cells. An excerpt:
The BT20, BT474, BT549, MCF7, MDA-MB-231, MDA-MB-436, MDA-MB-468, HCC1143, HCC1500, HCC1569, HCC1937, HCC1954, Hs578t, and T47D cells lines were purchased from American Type Culture Collection (ATCC) (Manassas, VA). The HCI-001 cell line was derived from an ER-/PR-/HER2- patient-derived xenograft originally isolated from a patient as described previously (DeRose Y S, et al. Nat Med 2011; 17: 1514-1520). The HCI-001/LVM2 model was derived from the HCI-001 cell line by performing two rounds of selection for liver metastasis, as described previously (Wang M, et al. Cell Death Discovery 2019; 5: 153). Cell lines were grown in Dulbecco's Modified Eagle's Medium (GE Healthcare Life Sciences, Logan, UT) containing 10% fetal bovine serum (10% FBS—DMEM) in a humidified incubator with 5% CO2 at 37° C. Cell lysates were prepared as described previously (Law B K, et al. Mol Cell Biol. 2002; 22: 8184-8198). […]

Experiment [7] has as its system ERAP1. As to the kind of experiment: ERAP1 secretion in A431 skin cancer cells, immunoblot. In kind it is cell-based. The following applies: 5 μM, 24 h.
In experiment [8] the target is T3, AGR2 (Homo sapiens, UniProt O95994).
T3 sequence (O95994 21-175): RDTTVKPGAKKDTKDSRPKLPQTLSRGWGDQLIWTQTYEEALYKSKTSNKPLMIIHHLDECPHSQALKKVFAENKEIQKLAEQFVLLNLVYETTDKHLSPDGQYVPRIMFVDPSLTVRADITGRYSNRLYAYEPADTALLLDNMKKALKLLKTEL
As to the kind of experiment: DDA-AGR2 binding assay, Streptavidin-Alkaline Phosphatase blot. On the set-up: made in house; host or cells: E. coli BL21(DE3), pET-45b(+). The method, then:
Competent BL21(DE3) cells were transformed with either the AGR2/pET-45b(+) or AGR2 C81S/pET-45b(+) vectors. Protein expression was induced by the addition of 50 µM Isopropyl β-D-1-thiogalactopyranoside (Fisher Scientific, Fair Lawn, NJ) to bacterial cell cultures for 2.5 hours and shaking at 37° C. Bacterial cells were subsequently pelleted and dissolved in Mouse Tonicity Phosphate Buffered Saline (MTPBS) containing 1% Triton X-100 and sonicated for 20 seconds on ice, followed by centrifugation for 10 min at 4° C. to pellet cell debris. The supernatant was transferred to a new tube, followed by the addition of TALON Resin (Clontech, Mountain View, CA) and mixing on a Nutator for 30 min at 4° C. The TALON Resin was pelleted by centrifugation and washed twice with MTPBS and twice with MTPBS containing 30 mM Imidazole. Protein bound to the TALON Resin was eluted with 400 mM Imidazole and precipitated with 60% saturated ammonium sulfate. The precipitated protein was pelleted by centrifugation, dissolved in MTPBS containing 1 mM DTT and 1 mM EDTA, and subsequently dialyzed against a solution of MTPBS containing 10 μM DTT and 30% Glycerol.
as §2

Turning to `CO[C@H]1C[C@@H]2CS(=O)(=O)SC[C@H]2C[C@@H]1OC` [dMtcyDTDO, dimethoxy-tcyDTDO], the “Expression of C119S or C160S DR5 mutants” value in experiment [1] is given as “did not further increase expression of the C119S or C160S DR5 mutants”. Further, the “Wild type DR5 expression on co-treatment with doxycycline” value in experiment [1] was “further increased DR5 expression”. Further, the “Block of Biotin-PyrDTDO biotinylation of PDIA1” value in experiment [2] was “biotinylation was blocked”. For the same molecule, the “ERp44 binding to DR5[Δ81-178] in treated cells” value in experiment [3] was “barely detectable”. Moreover, the “ERp44 binding to wild type DR5 in treated cells” value in experiment [4] is “wild type DR5 bound ERp44”. The “ERAP1 levels in the culture medium” value in experiment [5] (5 μM, 24 h, FIG. 4F upper) is “dramatically increased”; in experiment [7] (FIG. 4F upper), “dramatically increased”. Moreover, the “ERAP1 secretion, statistical analysis” value in experiment [5] (5 μM, 24 h, N=3, FIG. 4F lower) is “induced ERAP1 secretion in a statistically significant manner”; in experiment [7] (N=3, FIG. 4F lower) it was “induced ERAP1 secretion in a statistically significant manner”. The “Cellular ERAP1 levels, immunoblot” value in experiment [5] (24 h, FIG. 4B) is “decreased cellular ERAP1 levels”. In experiment [5] (FIG. 4C), the “Cellular ERAP1 levels, quantitation across four experiments” value was “decreased ERAP1 levels and ERp44 binding to client proteins in a statistically significant manner”. Further, in experiment [6] (24 h, reducing conditions, FIG. 9B), the “Potency in induction of HER3 downregulation, DR5 upregulation and ERS (CHOP, XBP1s)” value is “more potent than tcyDTDO”. The “Onset of these responses (time-course)” value in experiment [6] (FIG. 9C) is listed as “as early as four hours after treatment”. For the same molecule, in experiment [8] (FIG. 2E, 9E-F), the “Ability to block Biotin-GlyPyrDTDO binding to AGR2, compared with tcyDTDO” value is “more effective competitor”. Besides, in experiment [8] (molar excess, pre-incubation with 600 μM, FIG. 2D), the “Competition with Biotin-GlyPyrDTDO binding to AGR2” value is recorded as “partially prevented Biotin-GlyPyrDTDO binding”.

Values taken from patent US20240118281A1, “ANTICANCER COMPOUNDS AND USES THEREOF” (University of Florida Research Foundation, Incorporated, priority 2021, published 2024).
